Test results published in ChEMBL document CHEMBL1201862, “PubChem BioAssay data set” (2004).
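Five compound concentrations were applied to cells in 96-well plates for 48 hours; endpoints were derived by simple linear interpolation of the resulting dose-response curve. Here, GI50 denotes the concentration required for 50% inhibition of growth.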 Activity calls are given as the source filed them. No stated cut-off is given here; in the data, active = GI50 up to about 1.1 µM and inactive = higher.

What was measured:
Test in all cases: NCI tumour cell line growth inhibition, 48 h
BT-549 = system: BT-549
DMS-114 = system: DMS-114
HOP-18 = system: HOP-18
RXF 631 = system: RXF 631
DMS-273 = system: DMS-273
M19-MEL = system: M19-MEL
SNB-78 = system: SNB-78
XF498 = system: XF498
LXFL 529 = system: LXFL 529

Measured: GI50

COc1c(O)c(O)cc2c1-c1ccc(OC)c(=O)cc1C(NC(C)=O)CC2 (stereo not drawn)
inactive: BT-549 2.22 µM | DMS-114 2.49 µM | HOP-18 > 100 µM | RXF 631 14.9 µM | DMS-273 3.27 µM | M19-MEL 6.12 µM | SNB-78 3.12 µM | XF498 5.38 µM | LXFL 529 3.86 µM

COCC1N=C(c2cc(OC)c(OC)c(OC)c2-c2cc3c(cc2[C@H](C)O)OCO3)O[C@H]1c1ccccc1 (stereo partly drawn)
inactive: HOP-18 88.9 µM | RXF 631 > 100 µM | DMS-273 37.2 µM | M19-MEL 37.1 µM | SNB-78 61 µM | LXFL 529 37.7 µM

O=C1C=C(Nc2ccc(S(=O)(=O)Nc3ncccn3)cc2)c2ccccc2C1=O
inactive: HOP-18 26.3 µM | RXF 631 22.3 µM | DMS-273 27.7 µM | M19-MEL 15.5 µM | SNB-78 28.8 µM | LXFL 529 23.2 µM

COc1cc2c(c3oc(-c4ccc5c(c4)OCO5)c(O)c(=O)c13)CCC(C)(C)O2
inactive: DMS-114 > 100 µM | HOP-18 > 100 µM | RXF 631 > 100 µM | DMS-273 > 100 µM | M19-MEL > 100 µM | SNB-78 > 100 µM | LXFL 529 22.9 µM

NC(=O)N/N=C/C(/C=N/NC(N)=O)[N+](=O)[O-]
inactive: DMS-114 > 100 µM | RXF 631 > 100 µM | M19-MEL > 100 µM | XF498 > 100 µM | LXFL 529 > 100 µM

Cc1ccc(C(=O)C(C)N)cc1C (stereo not drawn)
inactive: DMS-114 > 100 µM | RXF 631 > 100 µM | M19-MEL > 100 µM | XF498 41.5 µM | LXFL 529 > 100 µM

Cc1ccccc1/N=N/C(C(=O)c1ccccc1)C(=O)c1ccccc1
inactive: DMS-114 19.4 µM | RXF 631 34.9 µM | DMS-273 18.3 µM | M19-MEL 17.5 µM | XF498 19.5 µM | LXFL 529 13.1 µM

CCCNC1=C(C(=O)OCC)C(=O)CO1
inactive: DMS-114 > 100 µM | RXF 631 > 100 µM | DMS-273 > 100 µM | M19-MEL > 100 µM | SNB-78 > 100 µM | XF498 > 100 µM | LXFL 529 > 100 µM

CCCN(CCCC(NC(C)=O)C(=O)NCc1ccccc1)C(=O)NCCCl (stereo not drawn)
inactive: DMS-114 > 100 µM | HOP-18 > 100 µM | RXF 631 > 100 µM | DMS-273 > 100 µM | M19-MEL > 100 µM | XF498 > 100 µM | LXFL 529 > 100 µM
